Test results published in ChEMBL document CHEMBL2412957, “Synthesis and SAR of 4-aminocyclopentapyrrolidines as orally active N-type calcium channel inhibitors for inflammatory and neuropathic pain” (Bioorg Med Chem Lett, 2013).
pIC50, pKi: −log10 of the molar value. Values after ≈ are worked out from the molar mass of the structure shown.

species on record: Rattus norvegicus; test: Analgesic activity in rat monoiodoaceate-induced osteoarthritis pain model; assay type: functional; settings: not given

| SMILES | ED50 [mg/kg] |
| --- | --- |
| CN[C@@H](CC(C)C)C(=O)N[C@H]1CC[C@@H]2CN(c3ccc(C(F)(F)F)cc3)C[C@@H]21 | 3 |
| CC(C)N[C@@H](CC(C)(C)C)C(=O)N[C@H]1CC[C@@H]2CN(S(=O)(=O)c3ccc(C(F)(F)F)cc3)C[C@@H]21 | 8 |

target: Voltage-gated inwardly rectifying potassium channel KCNH2 (Homo sapiens, UniProt Q12809); test: Inhibition of dofetilide binding to human ERG; settings: not given

| SMILES | pKi |
| --- | --- |
| O=C(N[C@H]1CC[C@H]2CN(Cc3cccc(C(F)(F)F)c3)C[C@H]21)C(C1CCCCC1)C1CCCCC1 | 6.16 |
| O=C(N[C@@H]1CC[C@H]2CN(Cc3cccc(C(F)(F)F)c3)C[C@H]21)C(C1CCCCC1)C1CCCCC1 | 5.02 |

species on record: Rattus norvegicus; test: Analgesic activity in rat capsaicin secondary mechanical hyperalgesia pain model; assay type: functional; settings: not given

| SMILES | ED50 [mg/kg] |
| --- | --- |
| CC(C)N[C@@H](CC(C)(C)C)C(=O)N[C@H]1CC[C@@H]2CN(S(=O)(=O)c3ccc(C(F)(F)F)cc3)C[C@@H]21 | 13 |

test system: not listed separately; test: Ratio of drug level brain to plasma in po dosed rat after 60 mins; assay type: ADME, organism-based; settings: read-out: BPR

| SMILES | Kp at 1 h |
| --- | --- |
| CC(C)N[C@@H](CC(C)(C)C)C(=O)N[C@H]1CC[C@@H]2CN(S(=O)(=O)c3ccc(C(F)(F)F)cc3)C[C@@H]21 | 0.9 |

test system: not listed separately; test: Metabolic stability in rat liver microsomes assessed as compound remaining after 30 mins; assay type: ADME, Microsome; settings: read-out: Stability

| SMILES | remaining at 0.5 h [%] |
| --- | --- |
| CCN[C@@H](CC(C)(C)C)C(=O)N[C@H]1CC[C@@H]2CN(S(=O)(=O)c3ccc(C(F)(F)F)cc3)C[C@@H]21 | 89.2 |
| CN[C@@H](CC(C)C)C(=O)N[C@H]1CC[C@@H]2CN(c3ccc(C(F)(F)F)cc3)C[C@@H]21 | > 85 |
| CC(C)N[C@@H](CC(C)(C)C)C(=O)N[C@H]1CC[C@@H]2CN(S(=O)(=O)c3ccc(C(F)(F)F)cc3)C[C@@H]21 | 64.3 |

The remaining lines, values ahead:

| remaining at 0.5 h [%] | SMILES |
| --- | --- |
| 0.1 | O=C(N[C@H]1CC[C@H]2CN(Cc3cccc(C(F)(F)F)c3)C[C@H]21)C(C1CCCCC1)C1CCCCC1 |
| 2.6 | O=C(N[C@@H]1CC[C@H]2CN(Cc3cccc(C(F)(F)F)c3)C[C@H]21)C(C1CCCCC1)C1CCCCC1 |

test system: not listed separately; test: Plasma clearance in rat at 5 umol/kg, iv and 5 umol/kg, po; assay type: ADME, organism-based; settings: not given

| SMILES | clearance [mL/min/kg] |
| --- | --- |
| CN[C@@H](CC(C)C)C(=O)N[C@H]1CC[C@@H]2CN(c3ccc(C(F)(F)F)cc3)C[C@@H]21 | 21.7 |

target: Voltage-dependent N-type calcium channel subunit alpha-1B (Homo sapiens, UniProt Q00975); test: Inhibition of N-type Cav2.2 channel (unknown origin) by FLIPR assay; settings: read-out: IC50
Sequence (Q00975 whole entry): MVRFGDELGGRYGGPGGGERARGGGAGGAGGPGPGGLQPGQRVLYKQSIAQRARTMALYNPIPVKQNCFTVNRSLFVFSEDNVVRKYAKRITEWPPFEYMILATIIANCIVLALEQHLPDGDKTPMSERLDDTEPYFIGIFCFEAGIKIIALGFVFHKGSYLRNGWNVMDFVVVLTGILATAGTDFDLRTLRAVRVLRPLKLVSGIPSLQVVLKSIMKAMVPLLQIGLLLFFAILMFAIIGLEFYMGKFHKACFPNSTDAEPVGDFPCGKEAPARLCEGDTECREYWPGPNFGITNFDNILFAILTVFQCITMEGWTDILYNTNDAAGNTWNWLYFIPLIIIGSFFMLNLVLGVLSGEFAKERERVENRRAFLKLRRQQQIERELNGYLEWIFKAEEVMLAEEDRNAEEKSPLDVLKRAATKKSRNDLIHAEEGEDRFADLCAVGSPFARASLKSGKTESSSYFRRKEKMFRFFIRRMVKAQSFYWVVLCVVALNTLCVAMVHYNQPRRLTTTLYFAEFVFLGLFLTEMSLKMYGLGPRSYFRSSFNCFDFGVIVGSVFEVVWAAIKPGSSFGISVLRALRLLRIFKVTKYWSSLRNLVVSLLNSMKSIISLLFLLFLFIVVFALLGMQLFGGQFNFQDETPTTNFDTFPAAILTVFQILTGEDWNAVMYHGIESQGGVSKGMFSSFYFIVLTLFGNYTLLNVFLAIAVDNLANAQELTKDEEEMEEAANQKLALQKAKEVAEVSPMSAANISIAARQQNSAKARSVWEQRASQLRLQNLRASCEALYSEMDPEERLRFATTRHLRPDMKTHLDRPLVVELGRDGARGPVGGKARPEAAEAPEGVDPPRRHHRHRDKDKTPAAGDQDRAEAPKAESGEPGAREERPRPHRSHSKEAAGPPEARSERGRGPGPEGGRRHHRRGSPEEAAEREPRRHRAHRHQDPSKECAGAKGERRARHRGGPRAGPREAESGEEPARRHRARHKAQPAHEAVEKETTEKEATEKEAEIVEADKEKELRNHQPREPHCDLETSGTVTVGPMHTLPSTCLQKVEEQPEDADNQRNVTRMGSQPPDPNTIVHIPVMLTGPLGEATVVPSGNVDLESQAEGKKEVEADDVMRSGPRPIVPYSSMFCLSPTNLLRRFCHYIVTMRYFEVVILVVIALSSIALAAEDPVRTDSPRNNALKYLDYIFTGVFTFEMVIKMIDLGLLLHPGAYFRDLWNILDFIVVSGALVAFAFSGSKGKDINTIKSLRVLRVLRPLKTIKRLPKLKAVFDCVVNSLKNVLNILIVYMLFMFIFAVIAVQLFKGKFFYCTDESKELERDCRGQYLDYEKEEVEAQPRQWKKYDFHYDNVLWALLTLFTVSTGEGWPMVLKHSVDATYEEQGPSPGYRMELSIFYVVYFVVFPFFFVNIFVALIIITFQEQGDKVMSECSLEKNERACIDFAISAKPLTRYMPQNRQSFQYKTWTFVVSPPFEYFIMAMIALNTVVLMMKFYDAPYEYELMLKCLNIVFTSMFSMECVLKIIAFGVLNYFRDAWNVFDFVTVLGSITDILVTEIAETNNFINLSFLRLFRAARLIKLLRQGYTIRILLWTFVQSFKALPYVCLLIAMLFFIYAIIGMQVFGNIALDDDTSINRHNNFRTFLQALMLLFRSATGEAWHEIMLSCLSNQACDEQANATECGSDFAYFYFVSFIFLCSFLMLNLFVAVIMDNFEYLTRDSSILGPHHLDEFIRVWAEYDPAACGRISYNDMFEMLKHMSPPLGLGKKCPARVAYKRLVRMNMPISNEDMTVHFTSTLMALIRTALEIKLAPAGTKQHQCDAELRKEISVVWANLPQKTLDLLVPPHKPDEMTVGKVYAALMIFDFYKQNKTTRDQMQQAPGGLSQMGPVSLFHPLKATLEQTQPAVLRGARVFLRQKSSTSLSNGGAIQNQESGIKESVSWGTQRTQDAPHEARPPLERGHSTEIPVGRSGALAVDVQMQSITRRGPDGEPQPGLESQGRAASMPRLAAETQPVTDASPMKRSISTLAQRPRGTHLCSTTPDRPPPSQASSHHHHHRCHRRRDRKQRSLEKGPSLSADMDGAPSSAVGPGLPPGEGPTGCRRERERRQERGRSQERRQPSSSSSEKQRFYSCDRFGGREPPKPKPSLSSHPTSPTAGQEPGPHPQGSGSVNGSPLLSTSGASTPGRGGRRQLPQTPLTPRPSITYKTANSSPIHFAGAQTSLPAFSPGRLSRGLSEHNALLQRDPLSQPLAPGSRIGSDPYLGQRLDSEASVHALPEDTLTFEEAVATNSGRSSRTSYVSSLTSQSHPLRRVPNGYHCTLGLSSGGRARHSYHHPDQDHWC

| SMILES | pIC50 |
| --- | --- |
| CCN[C@@H](CC(C)(C)C)C(=O)N[C@H]1CC[C@@H]2CN(S(=O)(=O)c3ccc(C(F)(F)F)cc3)C[C@@H]21 | 6.31 |
| CN[C@@H](CC(C)C)C(=O)N[C@H]1CC[C@@H]2CN(c3ccc(C(F)(F)F)cc3)C[C@@H]21 | 5.91 |
| O=C(N[C@@H]1CC[C@H]2CN(Cc3cccc(C(F)(F)F)c3)C[C@H]21)C(C1CCCCC1)C1CCCCC1 | 5.73 |

same assay, conditions: read-out: pIC50 (converted)

| SMILES | IC50 [nM] |
| --- | --- |
| CCN[C@@H](CC(C)(C)C)C(=O)N[C@H]1CC[C@@H]2CN(S(=O)(=O)c3ccc(C(F)(F)F)cc3)C[C@@H]21 | 575 |

test system: not listed separately; test: Volume of distribution at steady state in rat at 5 umol/kg, iv and 5 umol/kg, po; assay type: ADME, organism-based; settings: in vivo, read-out: Vdss

| SMILES | Vd [L/kg] |
| --- | --- |
| CN[C@@H](CC(C)C)C(=O)N[C@H]1CC[C@@H]2CN(c3ccc(C(F)(F)F)cc3)C[C@@H]21 | 26.5 |

test system: not listed separately; test: AUC in rat at 5 umol/kg, po; assay type: ADME, organism-based; settings: plasma

| SMILES | AUC [ng·h/mL] |
| --- | --- |
| CN[C@@H](CC(C)C)C(=O)N[C@H]1CC[C@@H]2CN(c3ccc(C(F)(F)F)cc3)C[C@@H]21 | 799 |

test system: not listed separately; test: Half life in rat at 5 umol/kg, iv and 5 umol/kg, po; assay type: ADME, organism-based; settings: in vivo

| SMILES | half-life [min] |
| --- | --- |
| CN[C@@H](CC(C)C)C(=O)N[C@H]1CC[C@@H]2CN(c3ccc(C(F)(F)F)cc3)C[C@@H]21 | 924 |

test system: not listed separately; test: Oral bioavailability in rat at 5 umol/kg; assay type: ADME, organism-based; settings: in vivo

| SMILES | bioavailability [%] |
| --- | --- |
| CN[C@@H](CC(C)C)C(=O)N[C@H]1CC[C@@H]2CN(c3ccc(C(F)(F)F)cc3)C[C@@H]21 | 83 |

test system: Rattus norvegicus; test: Cardiotoxicity in anesthetized rat assessed as decrease in mean arterial pressure at plasma concentration of 1.57 ug/mL; assay type: toxicity, organism-based; settings: not given

| SMILES | Activity |
| --- | --- |
| CC(C)N[C@@H](CC(C)(C)C)C(=O)N[C@H]1CC[C@@H]2CN(S(=O)(=O)c3ccc(C(F)(F)F)cc3)C[C@@H]21 | Toxic |

target: T1, Voltage-dependent N-type calcium channel subunit alpha-1B (Rattus norvegicus, UniProt Q02294); test: Inhibition of rat N-type Cav2.2 channel expressed in HEK293 cells under depolarized condition by whole cell patch-clamp manual electrophysiology assay; assay type: cell-based; settings: not given
T1 sequence (Q02294 whole entry): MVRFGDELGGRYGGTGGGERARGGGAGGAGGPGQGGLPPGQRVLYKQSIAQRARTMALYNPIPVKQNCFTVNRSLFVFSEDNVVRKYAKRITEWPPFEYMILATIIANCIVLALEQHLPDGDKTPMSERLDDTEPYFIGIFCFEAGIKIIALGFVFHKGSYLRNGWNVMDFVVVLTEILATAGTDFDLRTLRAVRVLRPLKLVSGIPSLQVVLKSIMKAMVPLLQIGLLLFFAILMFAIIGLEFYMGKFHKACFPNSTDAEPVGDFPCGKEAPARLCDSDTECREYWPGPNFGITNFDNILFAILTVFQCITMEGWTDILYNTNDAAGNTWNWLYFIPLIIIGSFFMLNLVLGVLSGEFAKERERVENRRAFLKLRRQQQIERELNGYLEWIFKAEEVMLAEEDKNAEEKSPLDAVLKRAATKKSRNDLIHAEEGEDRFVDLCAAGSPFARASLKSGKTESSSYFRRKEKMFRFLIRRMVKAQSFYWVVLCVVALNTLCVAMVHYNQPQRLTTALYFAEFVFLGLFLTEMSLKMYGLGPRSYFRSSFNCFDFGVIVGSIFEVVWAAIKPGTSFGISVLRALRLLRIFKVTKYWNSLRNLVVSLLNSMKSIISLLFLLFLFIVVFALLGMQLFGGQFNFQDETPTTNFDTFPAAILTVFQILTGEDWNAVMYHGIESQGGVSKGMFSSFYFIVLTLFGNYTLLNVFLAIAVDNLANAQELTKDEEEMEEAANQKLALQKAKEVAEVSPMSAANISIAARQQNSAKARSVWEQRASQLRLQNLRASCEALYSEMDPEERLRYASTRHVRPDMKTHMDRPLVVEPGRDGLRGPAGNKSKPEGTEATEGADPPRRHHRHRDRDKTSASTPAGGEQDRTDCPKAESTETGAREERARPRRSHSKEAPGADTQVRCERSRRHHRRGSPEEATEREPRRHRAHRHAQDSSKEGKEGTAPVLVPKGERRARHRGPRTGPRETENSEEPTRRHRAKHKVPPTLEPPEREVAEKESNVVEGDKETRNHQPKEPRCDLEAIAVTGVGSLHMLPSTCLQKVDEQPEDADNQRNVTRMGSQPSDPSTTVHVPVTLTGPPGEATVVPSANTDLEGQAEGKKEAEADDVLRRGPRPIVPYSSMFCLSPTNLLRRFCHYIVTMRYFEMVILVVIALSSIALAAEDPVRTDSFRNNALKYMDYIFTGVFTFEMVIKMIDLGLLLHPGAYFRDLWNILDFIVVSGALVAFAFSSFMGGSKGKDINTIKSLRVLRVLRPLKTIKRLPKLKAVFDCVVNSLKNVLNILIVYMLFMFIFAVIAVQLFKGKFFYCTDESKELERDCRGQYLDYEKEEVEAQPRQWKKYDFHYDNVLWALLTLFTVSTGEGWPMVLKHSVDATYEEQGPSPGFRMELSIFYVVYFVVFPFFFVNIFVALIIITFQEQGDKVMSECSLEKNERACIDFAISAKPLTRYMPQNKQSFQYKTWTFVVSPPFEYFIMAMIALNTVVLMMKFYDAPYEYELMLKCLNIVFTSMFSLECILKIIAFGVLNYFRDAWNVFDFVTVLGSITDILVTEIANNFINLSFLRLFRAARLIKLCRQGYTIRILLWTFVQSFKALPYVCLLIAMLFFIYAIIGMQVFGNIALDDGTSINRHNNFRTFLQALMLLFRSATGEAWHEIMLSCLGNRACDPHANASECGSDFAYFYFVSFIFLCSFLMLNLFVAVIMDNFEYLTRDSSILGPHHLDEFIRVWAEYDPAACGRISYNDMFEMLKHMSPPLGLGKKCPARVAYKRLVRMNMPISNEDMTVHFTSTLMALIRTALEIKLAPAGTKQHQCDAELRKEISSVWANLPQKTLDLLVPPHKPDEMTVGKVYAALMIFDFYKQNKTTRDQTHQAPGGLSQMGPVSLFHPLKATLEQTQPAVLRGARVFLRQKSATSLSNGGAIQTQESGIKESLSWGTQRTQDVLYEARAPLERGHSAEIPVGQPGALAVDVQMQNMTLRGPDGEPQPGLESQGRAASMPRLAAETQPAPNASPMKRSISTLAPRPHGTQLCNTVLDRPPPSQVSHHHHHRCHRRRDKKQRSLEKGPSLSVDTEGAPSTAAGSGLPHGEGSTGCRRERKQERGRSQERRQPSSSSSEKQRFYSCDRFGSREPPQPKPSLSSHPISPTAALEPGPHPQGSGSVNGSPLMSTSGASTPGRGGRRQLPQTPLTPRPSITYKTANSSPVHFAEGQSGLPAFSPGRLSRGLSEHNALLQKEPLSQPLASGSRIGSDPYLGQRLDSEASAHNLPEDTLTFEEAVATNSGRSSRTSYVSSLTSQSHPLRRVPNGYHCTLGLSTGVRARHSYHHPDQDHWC

| SMILES | pIC50 |
| --- | --- |
| CN[C@@H](CC(C)C)C(=O)N[C@H]1CC[C@@H]2CN(c3ccc(C(F)(F)F)cc3)C[C@@H]21 | 6.00 |
| CC(C)N[C@@H](CC(C)(C)C)C(=O)N[C@H]1CC[C@@H]2CN(S(=O)(=O)c3ccc(C(F)(F)F)cc3)C[C@@H]21 | 6.47 |

target: T1, Voltage-dependent N-type calcium channel subunit alpha-1B; test: Inhibition of rat N-type Cav2.2 channel expressed in HEK293 cells under hyperpolarized condition by whole cell patch-clamp manual electrophysiology assay; assay type: cell-based; settings: not given

| SMILES | pIC50 |
| --- | --- |
| CN[C@@H](CC(C)C)C(=O)N[C@H]1CC[C@@H]2CN(c3ccc(C(F)(F)F)cc3)C[C@@H]21 | 5.36 |
| CC(C)N[C@@H](CC(C)(C)C)C(=O)N[C@H]1CC[C@@H]2CN(S(=O)(=O)c3ccc(C(F)(F)F)cc3)C[C@@H]21 | 6.47 |

test system: Rattus norvegicus; test: AUC in rat at 30 umol/kg, po; assay type: ADME, organism-based, Plasma; settings: in vivo

| SMILES | AUC [ng·h/mL] |
| --- | --- |
| CC(C)N[C@@H](CC(C)(C)C)C(=O)N[C@H]1CC[C@@H]2CN(S(=O)(=O)c3ccc(C(F)(F)F)cc3)C[C@@H]21 | 240 |

test system: not listed separately; test: Solubility of the compound by chemiluminescent nitrogen detection method; settings: not given

| SMILES | solubility [µM] |
| --- | --- |
| CCN[C@@H](CC(C)(C)C)C(=O)N[C@H]1CC[C@@H]2CN(S(=O)(=O)c3ccc(C(F)(F)F)cc3)C[C@@H]21 | 20 (≈ 9.79 µg/mL) |
| CN[C@@H](CC(C)C)C(=O)N[C@H]1CC[C@@H]2CN(c3ccc(C(F)(F)F)cc3)C[C@@H]21 | 33 (≈ 13.1 µg/mL) |

Further lines, results first:

| solubility [µM] | SMILES |
| --- | --- |
| < 3 | O=C(N[C@H]1CC[C@H]2CN(Cc3cccc(C(F)(F)F)c3)C[C@H]21)C(C1CCCCC1)C1CCCCC1 |
| < 3 | O=C(N[C@@H]1CC[C@H]2CN(Cc3cccc(C(F)(F)F)c3)C[C@H]21)C(C1CCCCC1)C1CCCCC1 |

test system: Rattus norvegicus; test: Oral bioavailability in rat at 30 umol/kg; assay type: ADME, organism-based; settings: in vivo, at 30 µmol/kg

| SMILES | F [%] |
| --- | --- |
| CC(C)N[C@@H](CC(C)(C)C)C(=O)N[C@H]1CC[C@@H]2CN(S(=O)(=O)c3ccc(C(F)(F)F)cc3)C[C@@H]21 | 46.7 |

species on record: Rattus norvegicus; test: Analgesic activity in rat chronic constriction injury-induced neuropathic pain model; assay type: functional; settings: not given

| SMILES | ED50 [mg/kg] |
| --- | --- |
| CN[C@@H](CC(C)C)C(=O)N[C@H]1CC[C@@H]2CN(c3ccc(C(F)(F)F)cc3)C[C@@H]21 | 10 |
| CC(C)N[C@@H](CC(C)(C)C)C(=O)N[C@H]1CC[C@@H]2CN(S(=O)(=O)c3ccc(C(F)(F)F)cc3)C[C@@H]21 | 32 |

test system: not listed separately; test: Metabolic stability in human liver microsomes assessed as compound remaining after 30 mins; assay type: ADME, Microsome; settings: read-out: Stability

| SMILES | remaining at 0.5 h [%] |
| --- | --- |
| CCN[C@@H](CC(C)(C)C)C(=O)N[C@H]1CC[C@@H]2CN(S(=O)(=O)c3ccc(C(F)(F)F)cc3)C[C@@H]21 | 22.8 |
| CN[C@@H](CC(C)C)C(=O)N[C@H]1CC[C@@H]2CN(c3ccc(C(F)(F)F)cc3)C[C@@H]21 | > 85 |
| CC(C)N[C@@H](CC(C)(C)C)C(=O)N[C@H]1CC[C@@H]2CN(S(=O)(=O)c3ccc(C(F)(F)F)cc3)C[C@@H]21 | 79.6 |

Continued, values first:

| remaining at 0.5 h [%] | SMILES |
| --- | --- |
| 0.5 | O=C(N[C@H]1CC[C@H]2CN(Cc3cccc(C(F)(F)F)c3)C[C@H]21)C(C1CCCCC1)C1CCCCC1 |
| 1.2 | O=C(N[C@@H]1CC[C@H]2CN(Cc3cccc(C(F)(F)F)c3)C[C@H]21)C(C1CCCCC1)C1CCCCC1 |

test system: Rattus norvegicus; test: Plasma clearance in rat at 5 umol/kg, iv and 30 umol/kg, po; assay type: ADME, organism-based; settings: in vivo

| SMILES | CL [L/h/kg] |
| --- | --- |
| CC(C)N[C@@H](CC(C)(C)C)C(=O)N[C@H]1CC[C@@H]2CN(S(=O)(=O)c3ccc(C(F)(F)F)cc3)C[C@@H]21 | 2 |

test system: not listed separately; test: Half life in rat at 5 umol/kg, iv and 30 umol/kg, po; assay type: ADME, organism-based; settings: in vivo

| SMILES | half-life [min] |
| --- | --- |
| CC(C)N[C@@H](CC(C)(C)C)C(=O)N[C@H]1CC[C@@H]2CN(S(=O)(=O)c3ccc(C(F)(F)F)cc3)C[C@@H]21 | 162 |

test system: not listed separately; test: Volume of distribution at steady state in rat at 5 umol/kg, iv and 30 umol/kg, po; assay type: ADME, organism-based; settings: in vivo, read-out: Vdss

| SMILES | Vd [L/kg] |
| --- | --- |
| CC(C)N[C@@H](CC(C)(C)C)C(=O)N[C@H]1CC[C@@H]2CN(S(=O)(=O)c3ccc(C(F)(F)F)cc3)C[C@@H]21 | 7.1 |

target: Voltage-gated L-type calcium channel (Rattus norvegicus, UniProt P22002+Q02485+P27732); test: Inhibition of L-type calcium channel in rat aorta ring tissue assessed as relaxation of tissue; assay type: tissue-based; settings: not given

| SMILES | IC50 [µM] |
| --- | --- |
| CC(C)N[C@@H](CC(C)(C)C)C(=O)N[C@H]1CC[C@@H]2CN(S(=O)(=O)c3ccc(C(F)(F)F)cc3)C[C@@H]21 | 2.6 |

test system: not listed separately; test: Ratio of drug level brain to plasma in rat at 3 umol/kg, ip after 30 mins; assay type: ADME, organism-based; settings: read-out: BPR

| SMILES | Kp at 0.5 h |
| --- | --- |
| CN[C@@H](CC(C)C)C(=O)N[C@H]1CC[C@@H]2CN(c3ccc(C(F)(F)F)cc3)C[C@@H]21 | 16.5 |
